This experiment can be described thus: Sensory panel assay of aqueous steviol glycoside solutions (roundtable consensus, descriptive analysis). The note with it: 500 ppm in reverse osmosis water, panel of four; for Sensory Attribute Comments - Off-tastes (bitterness, metallic taste) / Sensory Attribute Comments - Sweetness (intensity / profile): compared against Reb A and Reb D/M. Format: in vivo. The protocol: Assays were carried out to characterize the sensory attributes, e.g., sweetness profile, of aqueous solutions of samples. Sensory attributes of the compositions were tested by a panel of individuals that are experienced in sensory testing. The experienced panelists assessed sensory attributes such as, but not limited to, bitterness, metallic notes, mouth drying, sweetness intensity, and sweetness linger. The panelists compared the sweeteners against Reb A and Reb D/M. To test each composition, the experienced panelists dispensed approximately 2-4 fl oz of each sample or solution into their own mouths, dispersed the solution by moving their tongues, and individually recorded a sensory attribute scale value. Between tasting solutions, the panelists were able to cleanse their palates with water and/or rice crackers.
Assays were carried out to characterize the sensory attributes of aqueous solutions. Sensory attributes were analyzed by a panel of four individuals using a roundtable consensus approach. All panelists used the assay method described above. The panelists provided a descriptive analysis of the samples. The sensory attributes of Reb A and Reb D/M are known, and thus Reb A and Reb D/M were used as comparative samples. The sweetness profile of Reb A is described in the art, for example in DuBois et al. (“Concentration—Repose Relationship of Sweeteners,” Sweeteners: Discovery, Molecular Design, and Chemoreception, Chapter 20, pages 261-276, American Chemical Society 1991).

Results on three compounds are retold here after patent US20260283206A1, “SWEETENER COMPOSITIONS” (CARGILL, INCORPORATED, priority 2023, published 2026).

Entries after “also recorded” stand apart in the source; their conditions may differ.

As to `C=C1C[C@@]23CC[C@H]4[C@@](C)(CCC[C@@]4(C)C(=O)O[C@@H]4O[C@H](CO)[C@@H](O)[C@H](O)[C@H]4O[C@@H]4O[C@H](CO)[C@@H](O)[C@H](O)[C@H]4O)[C@@H]2CC[C@]1(O[C@@H]1O[C@H](CO)[C@@H](O)[C@H](O[C@@H]2O[C@H](CO)[C@@H](O)[C@H](O)[C@H]2O)[C@H]1O[C@@H]1OC[C@@H](C)[C@H](O)[C@H]1O)C3` [Sample 1, rebaudioside EM], the “Sensory Attribute Comments - Off-tastes (bitterness, metallic taste)” value (“Sensory Attribute Comments - Off-tastes” for short) was “Off-tastes: Less bitter than Reb A”.

With `C=C1CC23CCC4C(C)(C(=O)OC5OC(CO)C(O)C(OC6OC(CO)C(O)C(O)C6O)C5OC5OCC(O)C(O)C5O)CCCC4(C)C2CCC1(OC1OC(CO)C(O)C(OC2OC(CO)C(O)C(O)C2O)C1OC1OC(CO)C(O)C(O)C1O)C3` (stereo not drawn) [Sample 2, rebaudioside V2], the “Sensory Attribute Comments - Sweetness onset and rise” value was “(Reb D/M). Slight delay in onset (less delay than Sample; also recorded: very rapid rise”; the “Sensory Attribute Comments - Off-tastes” value was “Off-tastes: Very faint bitterness. Quite clean sweetness”; the “Sensory Attribute Comments - Sweetness (intensity / profile)” value is on record as “Sweetness: Higher peak sweetness than Sample 5”.

Turning to `C=C1C[C@@]23CC[C@H]4[C@@](C)(CCC[C@@]4(C)C(=O)O[C@@H]4O[C@H](CO)[C@@H](O)[C@H](O)[C@H]4O)[C@@H]2CC[C@]1(O[C@@H]1O[C@H](CO)[C@@H](O)[C@H](O[C@@H]2O[C@H](CO)[C@@H](O)[C@H](O)[C@H]2O)[C@H]1O[C@@H]1O[C@H](CO)[C@@H](O)[C@H](O)[C@H]1O)C3` [Sample 3, rebaudioside A, reference compound], the “Sensory Attribute Comments - Off-tastes” value was “Off-tastes: Typical Reb A bitterness, metallic taste” and the “Sensory Attribute Comments - Sweetness (intensity / profile)” value is on record as “Sweetness: Sweetness profile typical of Reb A”.
